In publication PMC11232401, “Characterization of antimalarial activity of artemisinin-based hybrid drugs” (Antimicrobial Agents and Chemotherapy, 2024):
Read-outs that look alike come from different tables or passages of the source.

Legend:
P. falciparum 3D7 strain = test system: P. falciparum 3D7 strain; parameters: method as in PMID 31290221, PMID 34832911, PMID 38559731; conditions: asynchronous culture, SYBR Green I; read-out: IC50 (nM, median ± SEM) for P. falciparum 3D7 strain; cited from earlier work
P. falciparum Dd2 strain = test system: P. falciparum Dd2 strain; parameters: method as in PMID 31290221, PMID 34832911, PMID 38559731; conditions: asynchronous culture, SYBR Green I; read-out: IC50 (nM, median ± SEM) for P. falciparum Dd2 strain; cited from earlier work
P. berghei-infected mice = test system: P. berghei-infected mice; parameters: method as in PMID 31290221, PMID 34832911, PMID 38559731; conditions: Peters test; cited from earlier work
P. falciparum = experiment: Parasite growth inhibition (cell potency); format: cell-based; conditions: Plasmodium falciparum; strain and exposure not stated at the place
[1] = test system: heme (iron II)-initiated β-hematin formation; experiment: β-hematin inhibitory activity under reducing condition (R-BHIA); format: biochemical; conditions: mean (95% CI)
Method: The compounds were dissolved in DMSO and diluted in DMSO to six different concentrations (1.0–32 mM). Hemin (Fe^III[PPIX]Cl) (BioXtra, Sigma-Aldrich) was first dissolved in 0.1 M NaOH and then suspended in an 80:20 vol/vol mixture of DMSO and propionate buffer (0.1 M, pH 5.6) to a stock solution at 8 mM. Reduced glutathione (GSH) was dissolved in 0.1 M NaOH and then adjusted to 10 mM using propionate buffer (0.1 M, pH 5.6). […] Then, 20 µL of the drug was added, and the plates were incubated for 2 h at 37°C. The plastic film was removed after drug incubation, 160 µL propionate buffer (1.0 M, pH 5.6) was added, and plates were incubated for 18 h at 37°C. BHIA under the oxidizing condition (O-BHIA) was prepared in parallel without adding GSH. Controls included wells without drugs and wells containing PBS 1× instead of propionate buffer. Afterward, the plates were centrifuged, the supernatant was discarded, and the pellets of β-hematin crystals were washed twice with pure DMSO and then water. The resulting β-hematin crystals were then dissolved in 200 µL 0.1 M NaOH and diluted to a 1:8 ratio. Aliquots were then transferred into a new plate and read by UV-visible absorbance at […]. Percent of BHIA was calculated in comparison to untreated wells (no drugs), and IC50 was then calculated. Two independent experiments were performed using three replicates of each drug concentration ([46]).
(§1) Figure S6: A summary of IC50 values derived from β-hematin inhibitory activity (BHIA). Footnotes for table: ^[a,b^] Values are mean and 95% confidence interval of one experiment, each concentration in triplicate. ^[a] Using heme (Fe[II]PPIX[Cl]) as a starting reagent. ^[b] Using hematin (Fe[III]PPIX[OH]) as a starting reagent. ^[c] […] CQ = chloroquine. R-BHIA = reducing β-hematin inhibitory activity. O-BHIA = oxidizing β-hematin inhibitory activity.

[2] = test system: hematin (iron III)-initiated β-hematin formation; experiment: β-hematin inhibitory activity under oxidizing condition (O-BHIA); format: biochemical; conditions: hematin as starting reagent; mean (95% CI)
Method: The compounds were dissolved in DMSO and diluted in DMSO to six different concentrations (1.0–32 mM). Hemin (Fe^III[PPIX]Cl) (BioXtra, Sigma-Aldrich) was first dissolved in 0.1 M NaOH and then suspended in an 80:20 vol/vol mixture of DMSO and propionate buffer (0.1 M, pH 5.6) to a stock solution at 8 mM. Reduced glutathione (GSH) was dissolved in 0.1 M NaOH and then adjusted to 10 mM using propionate buffer (0.1 M, pH 5.6). For β-hematin inhibitory activity (BHIA) under the reducing condition (R-BHIA), hemin (10 µL) and GSH (10 µL) were distributed in a 96-well plate and homogenized, and the plates were sealed using a thin plastic film and incubated for 1 h at 37°C. Then, 20 µL of the drug was added, and the plates were incubated for 2 h at 37°C. The plastic film was removed after drug incubation, 160 µL propionate buffer (1.0 M, pH 5.6) was added, and plates were incubated for 18 h at 37°C. BHIA under the oxidizing condition (O-BHIA) was prepared in parallel without adding GSH. Controls included wells without drugs and wells containing PBS 1× instead of propionate buffer. Afterward, the plates were centrifuged, the supernatant was discarded, and the pellets of β-hematin crystals were washed twice with pure DMSO and then water. The resulting β-hematin crystals were then dissolved in 200 µL 0.1 M NaOH and diluted to a 1:8 ratio. Aliquots were then transferred into a new plate and read by UV-visible absorbance at […]. Percent of BHIA was calculated in comparison to untreated wells (no drugs), and IC50 was then calculated. Two independent experiments were performed using three replicates of each drug concentration ([46]).
as §1

[3] = test system: Ring stages of NF54 strain P. falciparum; experiment: Antiplasmodial activity of drug combinations (pLDH, isobologram/FIC); format: cell-based; conditions: Plasmodium falciparum, mean (95% CI), tested in parallel with the combination of the same line
Method: The activity of the drug combinations against the P. falciparum NF54 strain was determined as described above. In each experiment, drugs were tested alone and in combination. Twofold serial dilutions of the drug solutions were made using fixed molar ratios of 1:1, 1:3, and 3:1 for each combination and using two technical replicates (ranging from 200 to 1.0 nM). Parasite growth was determined by the pLDH method, as described above. IC50 values for each drug alone or in combination were determined, and an isobologram analysis was performed by plotting the fractional inhibitory concentrations (FIC) for each combination and its component drugs separately. Individual FIC values were calculated as the IC50 of the drug combination divided by the IC50 of the drug in isolation. A dashed line was plotted to indicate any additive effect and distinguish antagonism (above the dashed line) from synergism (below the dashed line). Three independent experiments were performed, each one containing two replicates. Each experiment was used to represent an isobologram analysis [mean and 95% confidence interval (CI)].
Values represent one experiment; each concentration of drug combination was tested in technical duplicate. Black dashed line indicates ΣFIC = 1 (absolute additivity). […] FIC index <1 is synergistic, ~1 is additive, and >1 is antagonistic. Nondetrimental interactions are 0.25 <ΣFIC <1.25.
^[a] Values are the mean and 95% confidence interval of one experiment for each concentration of compounds in duplicate.

[4] = test system: NF54 strain of P. falciparum; experiment: Ring-stage-specific drug activity (pLDH); format: cell-based; conditions: Plasmodium falciparum, median ± SEM
Method: Each compound was dissolved in dimethyl sulfoxide (DMSO) and diluted in RPMI-1640 medium into seven different concentrations, which were tested against CQ-susceptible strains (NF54 or D10) or a CQ-resistant strain (W2). Each well of 96-well plates was filled with 100 µL drug and 100 µL parasitized RBC (asynchronous parasite culture), which were mixed to obtain a final parasitemia of 1.0% to 1.5% and 1.0% hematocrit. Plates were incubated for 72 h at 37°C in a standard gas mixture; then, parasite growth was determined by measuring the activity of the parasite lactate dehydrogenase (pLDH) ([38]). Briefly, at the end of incubation, the cultures were carefully resuspended, and 20 µL aliquots were removed and added to 100 µL Malstat reagent in a 96-well microplate. The Malstat reagent is made of 0.125% TritonX-100, 130 mM L-lactate, 30 mM Tris buffer, and 0.62 µM 3-acetylpyridine adenine dinucleotide. After that, 20 µL 1.9 µM nitro blue tetrazolium (NBT) and 0.24 µM phenazine ethyl sulfate were added to the plate. NBT was reduced to blueformazan and spectrophotometrically read at OD 650 nm using a Synergy 4 microplate reader (BioTek, Santa Clara, USA). […] IC50 values were expressed as means of two to three independent experiments, with each drug concentration in duplicate.
The NF54 strain of P. falciparum was employed to test the drugs’ activity against ring stages and asynchronous parasite culture (all stages). The ring stages were obtained by synchronization with D-Sorbitol using a standard method ([39]). Each well of 96-well plates was filled with 100 µL each drug and 100 µL culture containing ring-stage or asynchronous parasites, which were mixed to obtain a final parasitemia of 1.0% to 1.5% and 1.0% hematocrit. […] Plates were processed using the pLDH method, and IC50 values were calculated as described above. At least two to three independent experiments were performed, using two technical replicates.
^[a] Synchronized ring-stage parasites were incubated in the presence of compounds for 6 h, drugs were removed by washing, and plates were incubated for an additional 66 h. ^[b] Asynchronous parasites were incubated in the presence of compounds for 6 h, drugs were removed by washing, and plates were incubated for an additional 66 h. ^[c] Asynchronous parasites were incubated in the presence of compounds for 72 h. ^[a,b^] Experiments were performed in parallel. ^[d] […] Parasite viability was determined by parasite lactate dehydrogenase. Data are from three experiments performed in duplicate. MFQ = mefloquine; DHA = dihydroartemisinin; SEM = standard error of the mean.

[5] = test system: ring stages of NF54 strain of P. falciparum; experiment: Exposure time dependence in drug activity (pLDH); format: cell-based; conditions: Plasmodium falciparum
Method: Each well of 96-well plates was filled with 100 µL drug and 100 µL culture containing ring-stage P. falciparum (NF54 strain) parasites, which were mixed to obtain a final parasitemia of 1.0% to 1.5% and 1.0% hematocrit. Plates were incubated at 37°C in a standard gas mixture. After 3 h and 6 h, plates were centrifuged, cell pellets were washed as described above then returned to the incubator for an additional 69 h and 66 h, respectively. In parallel, the same experiment was left without the washing step, enabling continuous drug exposure throughout. Plates were processed using the pLDH method, and IC50 values were calculated as described above. Three independent experiments were performed using two technical replicates.
Figure S2: Exposure time dependence of antiparasitic activity against ring stages of CQ-sensitive strain NF54 of P. falciparum. Data associated to Figure 2B in the main text of the manuscript. Footnotes for table: ^[a] Synchronized ring-stage parasites were incubated in the presence of compounds at indicated times, drugs were removed by washing, and plates were incubated until 72 h.^[b] Parasites were incubated in the presence of compounds for 72 h. ^[a,b^] Experiments were performed in parallel (paired). Parasite viability was determined by parasite lactate dehydrogenase (pLDH) assay. Data are from three experiments performed in duplicate.^ [c] […] MFQ = mefloquine. DHA = dihydroartemisinin; SEM = standard error of the mean; N.S. = not statistically significant.

[6] = in vivo; cited from earlier work

For `C[C@@H]1CC[C@H]2[C@@H](C)C(=O)O[C@@H]3O[C@@]4(C)CC[C@@H]1[C@]32OO4` [ART, artemisinin], the IC50 (P. falciparum 3D7 strain) is given as 26.8 ± 2.4 nM, the IC50 (P. falciparum Dd2 strain) is given as 11.3 ± 1.8 nM and the “In vivo parasitemia reduction (%)” value (P. berghei-infected mice) is given as 78.5 ± 9.0%.
In the case of `CCN(CC)CCCC(C)Nc1ccnc2cc(Cl)ccc12` (stereo not drawn) [CQ, chloroquine, reference compound], the IC50 (P. falciparum) is listed as 14.5 nM, the IC50 (P. falciparum 3D7 strain) is listed as 12.7 ± 2.5 nM and the IC50 (P. falciparum Dd2 strain) is listed as 165 ± 16 nM. For the same compound, the IC50 ([1]; reductive step 10 minutes, read-out: IC50 (µM) values of R-BHIA using heme (iron II), 10 minutes) was 189 µM, the IC50 ([1]; reductive step 120 minutes, read-out: IC50 (µM) values of R-BHIA using heme (iron II), 120 minutes) was 222 µM and the IC50 [2] was 228 µM. It also gave an IC50 ([3]; NF54, read-out: IC50, Drugs alone, ring stages NF54) of 10.4 nM.
For `OC(c1cc(C(F)(F)F)nc2c(C(F)(F)F)cccc12)C1CCCCN1` (stereo not drawn) [MFQ, mefloquine, reference compound], the IC50 ([4]; asynchronous parasites, 6 h drug, wash, additional 66 h, read-out: IC50, Asynchronous) was 61.6 ± 11.9 nM, the IC50 ([4]; asynchronous parasites, 72 h continuous drug, read-out: IC50, 72 h) was 20.2 ± 1.3 nM and the IC50 ([4]; synchronized ring stages, 6 h drug, wash, additional 66 h, read-out: IC50, Ring stages) was 37.2 ± 5.2 nM. The IC50 ([5]; NF54, 6 h drug pulse, wash, incubated until 72 h, median ± SEM, read-out: IC50, 6 h + 66 h) was 37.2 ± 5.2 nM, the IC50 ([5]; NF54, 72 h continuous drug, median ± SEM, read-out: IC50, 72 h) was 10.3 ± 2.6 nM and the IC50 ([5]; NF54, read-out: IC50, 3 h + 69 h, 3 h drug pulse, wash, incubated until 72 h, median ± SEM) was > 600 nM. For the same compound, the IC50 ([3]; NF54, ring stages NF54, read-out: IC50, Drugs alone) was 17 nM.
In the case of `CC(C)(N)CNC(=O)C[C@H]1CC[C@]2(CC1)OO[C@]1(O2)C2CC3CC(C2)CC1C3` [OZ277], the “half-life (t1/2)” value [6] is listed as 2 to 4 h.
